Source: patent publication US7629340B2, “N-(6-membered aromatic ring)-amido anti-viral compounds” (SmithKline Beecham Corporation, priority 2005, dated 2009)

assay: Replicon Assay (luciferase, ET cell line); type: cell-based, HCV; conditions: Hepatitis C virus; % inhibition of replication relative to no compound control, test concentration of 10 μM; ET cells, luciferase read 48-72 hours; read-out: % inhib at 10 uM
Experimental: A cell line, ET (Huh-lucubineo-ET) was used for screening of compounds of the present invention for HCV RNA dependent RNA polymerase. The ET cell line was stably transfected with RNA transcripts harboring a I389luc-ubi-neo/NS3-3′/ET; replicon with firefly luciferase-ubiquitin-neomycin phosphotransferase fusion protein and EMCV-IRES driven NS3-5B polyprotein containing the cell culture adaptive mutations (E1202G; T1280I; K1846T) (Krieger at al, 2001 and unpublished). The ET cells were grown in DMEM, supplemented with 10% fetal calf serum, 2 mM Glutamine, Penicillin (100 IU/mL)/Stretomycin (100 μg/mL), 1× nonessential amino acids, and 250 μg/mL G418 (“Geneticin”). They were all available through Life Technologies (Bethesda, Md.). The cells were plated at 0.5−1.0×10^4 cells/well in the 96 well plates and incubated for 24 hrs before adding nucleoside analogs. […] Luciferase activity were measured 48-72 hours later by adding a lysis buffer and the substrate (Catalog number Glo-lysis buffer E2661 and Bright-Glo luciferase system E2620 Promega, Madison, Wis.). Cells should not be too confluent during the assay. Percent inhibition of replication was plotted relative to no compound control. Under the same condition, cytotoxicity of the compounds was determined using cell proliferation reagent, WST-1 (Roche, Germany). The compounds showing antiviral activities, but no significant cytotoxicities were chosen to determine IC50 and TC50. For these determinations, 10 concentration of each compound were used. Concentrations for test compounds typically span a range of 500 fold. IC50 and TC50 values were calculated by fitting % inhibition at each concentration (I) to the following equation: % inhibition=100%/[1+10^(log IC50−log(I))*b] where b is Hill's coefficient.

Compared with `O=C(Nc1cccc(-c2cccs2)c1)[C@@H]1CCCN1C(=O)OCc1ccccc1` [Compound 6022, 2-(3-Thiophen-2-yl-phenylcarbamoyl)-pyrrolidine-1-carboxylic acid benzyl ester], `Nc1ccc(-c2cccc(NC(=O)[C@@H]3CCCN3C(=O)OCc3ccccc3)c2)cc1` [Compound 6086, 2-(4′-Amino-biphenyl-3-ylcarbamoyl)-pyrrolidine-1-carboxylic acid benzyl ester] is higher in inhibition at 10 µM: 87.3% for the first, 89.9% for the second.

Going from `COc1ccccc1-c1cccc(NC(=O)[C@@H]2CCCN2C(=O)OCc2ccccc2)c1` [Compound 6031, 2-(2′-Methoxybiphenyl-3-yl-carbamoyl)-pyrrolidine-1-carboxylic acid benzyl ester] to `COc1cccc(-c2cccc(NC(=O)[C@@H]3CCCN3C(=O)OCc3ccccc3)c2)c1OC` [Compound 6026, 2-(2′,3′-Dimethoxybiphenyl-3-yl-carbamoyl)-pyrrolidine-1-carboxylic acid benzyl ester], the inhibition at 10 µM rises from 28.6% to 98.7%.

First: COc1cccc(OC)c1-c1ccc(NC(=O)[C@@H]2CCCN2C(=O)OCc2ccccc2)cc1 [Compound 6036, 2-(2′,6′-Dimethoxy-biphenyl-4-ylcarbamoyl)-pyrrolidine-1-carboxylic acid benzyl ester]
Second: COc1ccc(-c2cccc(NC(=O)[C@@H]3CCCN3C(=O)OCc3ccccc3)c2)cc1 [Compound 6037, 2-(4′-Methoxybiphenyl-3-yl-carbamoyl)-pyrrolidine-1-carboxylic acid benzyl ester]
The inhibition at 10 µM of the first is higher: 22.9% for the first, 8.6% for the second.

Compared with `O=C(Nc1ccc(-c2ccccc2)cc1)[C@@H]1CCCN1C(=O)OCc1ccccc1` [Compound 6035, 2-(Biphenyl-4-ylcarbamoyl)-pyrrolidine-1-carboxylic acid benzyl ester], `CNc1cccc(-c2cccc(NC(=O)[C@@H]3CCCN3C(=O)OCc3ccccc3)c2)c1` [Compound 6089, 2-(3′-Methylamino-biphenyl-3-ylcarbamoyl)-pyrrolidine-1-carboxylic acid benzyl ester] is higher in inhibition at 10 µM: 42.5% for the first, 76.4% for the second.

First: Cc1ccc2cc(-c3cccc(NC(=O)[C@@H]4CCCN4C(=O)OCc4ccccc4)c3)ccc2n1 [Compound 6085, 2-[3-(2-Methyl-quinolin-6-yl)-phenylcarbamoyl]-pyrrolidine-1-carboxylic acid benzyl ester]
Second: Cc1c(Br)cc2[nH]c(Cc3ccc(NC(=O)[C@@H]4CCCN4C(=O)OCc4ccccc4)cc3)nc2c1C (stereo in doubt) [Compound 6006, 2-[4-(6-Bromo-4,5-dimethyl-1H-benzoimidazol-2-ylmethyl)-phenylcarbamoyl]-pyrrolidine-1-carboxylic acid benzyl ester]
The inhibition at 10 µM of the first is lower: 39.7% for the first, 70% for the second.
